Bounds are passed on as bounds.

Usually Ki stands for a measure of affinity in units of concentration, obtained from inhibition or displacement. The low end stands for a stronger hold on the target, the high end for a looser hold on the target.

The target in the assay is T1, Adenosine receptor A1 (Bos taurus, UniProt P28190).
T1 sequence (P28190 whole entry): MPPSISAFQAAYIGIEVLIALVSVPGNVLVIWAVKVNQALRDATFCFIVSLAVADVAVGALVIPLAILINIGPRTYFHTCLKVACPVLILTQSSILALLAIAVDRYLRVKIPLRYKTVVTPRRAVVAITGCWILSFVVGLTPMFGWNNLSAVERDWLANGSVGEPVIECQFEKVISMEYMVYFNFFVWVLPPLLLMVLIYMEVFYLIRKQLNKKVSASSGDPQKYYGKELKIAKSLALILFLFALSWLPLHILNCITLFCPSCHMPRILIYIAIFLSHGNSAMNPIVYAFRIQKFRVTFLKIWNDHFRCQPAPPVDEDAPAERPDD
The experiment in a line: Compound was tested for binding affinity at Adenosine A1 receptor in bovine brain cortical membranes using [3H](R)-(-)-N6-(2-phenylisopropyl)adenosine (R-PIA) as radioligand. It is filed as cell membranes.
Consider `Cc1ccc(Nc2ncnc3c2nnn3CCc2ccccc2)cc1`, for which the affinity, expressed as Ki, was 1670 nM.

The compound `Cc1cccc(Nc2ncnc3c2nnn3Cc2ccccc2Cl)c1` came in with a Ki of 5880 nM.

In turn, `Nc1ccc(CCNc2ncnc3c2nnn3Cc2ccccc2)cc1` gave a Ki of 1540 nM.

As to `c1ccc(Cn2nnc3c(NC4CCCCC4)ncnc32)cc1`, the Ki stood at 121 nM.

Compound `Cc1ccc(Nc2ncnc3c2nnn3Cc2ccccc2Cl)cc1` showed an inhibitory constant (Ki) of 119 nM.

Turning to `Clc1cccc(Nc2ncnc3c2nnn3CCc2ccccc2)c1`, the Ki came to 3320 nM.

Turning to `Clc1ccccc1Cn1nnc2c(NC3CCCC3)ncnc21`, the Ki came to 21 nM.

Compound `CC(Cc1ccccc1)Nc1ncnc2c1nnn2Cc1ccccc1` (centres undefined) came in with a Ki of 575 nM.

On to `CC(Cc1ccccc1)Nc1ncnc2c1nnn2Cc1ccccc1Cl` (centres undefined), for which the affinity, expressed as Ki, was 73 nM.

On to `Cc1cccc(Nc2ncnc3c2nnn3CCc2ccccc2)c1`, for which the Ki stood at 4380 nM.

In turn, `CC1CCCC(Nc2ncnc3c2nnn3Cc2ccccc2Cl)C1` (centres undefined) yielded a Ki of 102 nM.

Turning to `Cc1cccc(Nc2ncnc3c2nnn3Cc2ccccc2)c1`, the affinity corresponds to a Ki of 1100 nM.

The compound `c1ccc(Cn2nnc3c(NCC4CCCCC4)ncnc32)cc1` yielded a Ki of 2790 nM.

As to `O=[N+]([O-])c1ccc(CNc2ncnc3c2nnn3CCc2ccccc2)cc1`, the affinity corresponds to a Ki of 245 nM.

On to `CC(Nc1ncnc2c1nnn2CCc1ccccc1)c1ccccc1` (centres undefined), for which the Ki came to 2200 nM.

For the compound `c1ccc(CCn2nnc3c(NC4CCCCC4)ncnc32)cc1`, the Ki came out at 216 nM.

In turn, `Nc1ccc(CNc2ncnc3c2nnn3Cc2ccccc2)cc1` came in with a Ki of 9500 nM.

As for `CC(Nc1ncnc2c1nnn2Cc1ccccc1Cl)c1ccccc1` (centres undefined), the Ki stood at 468 nM.

As to `CC(Nc1ncnc2c1nnn2Cc1ccccc1)c1ccccc1` (centres undefined), the affinity, expressed as Ki, was 438 nM.

`c1ccc(Cn2nnc3c(NC4CCCC4)ncnc32)cc1` registered a Ki of 127 nM.

For `O=[N+]([O-])c1cccc(Nc2ncnc3c2nnn3Cc2ccccc2)c1`, the Ki was determined as 443 nM.

Compound `Clc1ccccc1Cn1nnc2c(NC3CCCCC3)ncnc21` gave a Ki of 43 nM.

As for `O=[N+]([O-])c1ccc(CNc2ncnc3c2nnn3Cc2ccccc2Cl)cc1`, the Ki is greater than 10000 nM.

Compound `O=[N+]([O-])c1cccc(Nc2ncnc3c2nnn3CCc2ccccc2)c1` gave a Ki of 2250 nM.

Take `Clc1cccc(Nc2ncnc3c2nnn3Cc2ccccc2)c1`: the Ki came out at 463 nM.

With `Nc1ccc(CNc2ncnc3c2nnn3Cc2ccccc2Cl)cc1`, the Ki is greater than 10000 nM.

As to `Clc1ccccc1Cn1nnc2c(NCC3CCCCC3)ncnc21`, the affinity corresponds to a Ki of 4260 nM.

Turning to `CC1CCCC(Nc2ncnc3c2nnn3Cc2ccccc2)C1` (centres undefined), the affinity, expressed as Ki, was 770 nM.

Take `Clc1cccc(Nc2ncnc3c2nnn3Cc2ccccc2Cl)c1`: the Ki turned out to be 1830 nM.

Compound `C[C@H](Cc1ccccc1)Nc1ncnc2c1nnn2Cc1ccccc1` came in with a Ki of 274 nM.

`C[C@H](Cc1ccccc1)Nc1ncnc2c1nnn2Cc1ccccc1Cl`: affinity was put at a Ki of 39 nM.

`Cc1ccc(Nc2ncnc3c2nnn3Cc2ccccc2)cc1` displayed a Ki of 502 nM.

Compound `O=[N+]([O-])c1ccc(CCNc2ncnc3c2nnn3Cc2ccccc2)cc1` came in with a Ki greater than 10000 nM.

`c1ccc(CCn2nnc3c(NC4CCCC4)ncnc32)cc1`: the Ki came out at 176 nM.

Turning to `CC(Cc1ccccc1)Nc1ncnc2c1nnn2CCc1ccccc1` (centres undefined), the affinity corresponds to a Ki of 2490 nM.

Compound `Clc1ccccc1Cn1nnc2c(NNc3ccccc3)ncnc21` came in with an inhibitory constant (Ki) greater than 10000 nM.

Take `O=[N+]([O-])c1ccc(CCNc2ncnc3c2nnn3Cc2ccccc2Cl)cc1`: the Ki was greater than 10000 nM.

Regarding `O=[N+]([O-])c1cccc(Nc2ncnc3c2nnn3Cc2ccccc2Cl)c1`, the Ki stood at 3300 nM.

For `O=[N+]([O-])c1ccc(CNc2ncnc3c2nnn3Cc2ccccc2)cc1`, the Ki was greater than 10000 nM.

The values above are taken from ChEMBL document CHEMBL1131481, “Novel 3-aralkyl-7-(amino-substituted)-1,2,3-triazolo[4,5-d]pyrimidines with high affinity toward A1 adenosine receptors” (J Med Chem, 1998).
